# Measurements from ChEMBL document CHEMBL1154294, “An approach to the site-selective diversification of apoptolidin A with peptide-based catalysts” (J Nat Prod, 2009).
# pEC50, pIC50: −log10 of the molar value.
# Key:
# [1] = target: ATP synthase subunit beta, mitochondrial (Saccharomyces cerevisiae S288c, UniProt P00830); test: Inhibition of yeast mitochondrial F0F1-ATPase
# [2] = Antiproliferative activity against Adenovirus type 12 E1A transformed rat 3Y1cells after 3 days by tetrazolium based cell counting assay; settings: 72 h
# [3] = Antiproliferative activity against rat 3Y1 cells after 3 days by tetrazolium based cell counting assay
# NCI-H292 = test: Cytotoxicity activity in human NCI-H292 cells after 48 hrs by thiazolyl blue tetrazolium bromide assay; format: functional, cell-based; settings: NCI-H292, 48 h
# Chain of ATP synthase subunit beta, mitochondrial (P00830 whole entry): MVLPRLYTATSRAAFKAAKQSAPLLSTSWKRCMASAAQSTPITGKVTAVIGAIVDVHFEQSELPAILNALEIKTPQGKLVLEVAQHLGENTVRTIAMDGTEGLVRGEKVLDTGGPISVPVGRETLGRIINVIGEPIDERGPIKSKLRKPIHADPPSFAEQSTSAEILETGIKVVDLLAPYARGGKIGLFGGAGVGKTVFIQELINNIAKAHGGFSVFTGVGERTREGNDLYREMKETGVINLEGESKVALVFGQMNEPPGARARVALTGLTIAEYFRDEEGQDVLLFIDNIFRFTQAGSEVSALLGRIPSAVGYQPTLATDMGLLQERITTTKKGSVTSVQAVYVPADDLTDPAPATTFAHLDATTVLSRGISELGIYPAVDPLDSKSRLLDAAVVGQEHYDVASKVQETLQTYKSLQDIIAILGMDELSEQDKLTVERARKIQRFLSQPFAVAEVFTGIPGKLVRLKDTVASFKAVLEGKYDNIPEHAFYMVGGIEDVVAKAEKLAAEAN
pIC50 [1],Compound,GI50 [2],GI50 at 72 h [3],pEC50 (NCI-H292)
6.52,COC[C@@H](CC1O[C@@](O)([C@H](O)C2CC(=O)/C(C)=C/C(C)=C/C(C)=C/[C@@H](C)[C@H](O[C@@H]3O[C@@H](C)[C@H](OC)[C@@H](O)[C@@H]3OC(=O)c3ccccc3)/C=C/C(C)=C/CC[C@H](O)[C@@H](OC)C2)[C@H](C)[C@@H](O)[C@H]1C)O[C@H]1C[C@](C)(O)[C@@H](O[C@H]2C[C@@H](OC)[C@H](O)[C@@H](C)O2)[C@H](C)O1 (some centres not stated),3.6 nM,> 1000 nM,
6.40,COC[C@@H](CC1O[C@@](O)([C@H](O)C2CC(=O)/C(C)=C/C(C)=C/C(C)=C/[C@@H](C)[C@H](O[C@@H]3O[C@@H](C)[C@H](OC)[C@@H](O)[C@@H]3O)/C=C/C(C)=C/CC[C@H](O)[C@@H](OC)C2)[C@H](C)[C@@H](OC(C)=O)[C@H]1C)O[C@H]1C[C@](C)(O)[C@@H](O[C@H]2C[C@@H](OC)[C@H](OC(C)=O)[C@@H](C)O2)[C@H](C)O1 (some centres not stated),9.5 nM,> 600 nM,
6.10,COC[C@@H](CC1O[C@@](O)([C@H](O)C2CC(=O)/C(C)=C/C(C)=C/C(C)=C/[C@@H](C)[C@H](O[C@@H]3O[C@@H](C)[C@H](OC)[C@@H](O)[C@@H]3O)/C=C/C(C)=C/CC[C@H](O)[C@@H](OC)C2)[C@H](C)[C@@H](O)[C@H]1C)O[C@H]1C[C@](C)(O)[C@@H](O[C@H]2C[C@@H](OC)[C@H](OC(C)=O)[C@@H](C)O2)[C@H](C)O1 (some centres not stated),9.8 nM,> 1000 nM,
,COC[C@@H](CC1O[C@@](O)([C@H](O)C2CC(=O)/C(C)=C/C(C)=C/C(C)=C/[C@@H](C)[C@H](O[C@@H]3O[C@@H](C)[C@H](OC)[C@@H](O)[C@@H]3OC(C)=O)/C=C/C(C)=C/CC[C@H](O)[C@@H](OC)C2)[C@H](C)[C@@H](O)[C@H]1C)O[C@H]1C[C@](C)(O)[C@@H](O[C@H]2C[C@@H](OC)[C@H](O)[C@@H](C)O2)[C@H](C)O1 (some centres not stated),,,7.22
,COC[C@@H](CC1O[C@@](O)([C@H](OC(C)=O)C2CC(=O)/C(C)=C/C(C)=C/C(C)=C/[C@@H](C)[C@H](O[C@@H]3O[C@@H](C)[C@H](OC)[C@@H](O)[C@@H]3OC(C)=O)/C=C/C(C)=C/CC[C@H](O)[C@@H](OC)C2)[C@H](C)[C@@H](O)[C@H]1C)O[C@H]1C[C@](C)(O)[C@@H](O[C@H]2C[C@@H](OC)[C@H](OC(C)=O)[C@@H](C)O2)[C@H](C)O1 (some centres not stated),,,7.32
6.40,COC[C@@H](CC1O[C@@](O)([C@H](O)C2CC(=O)/C(C)=C/C(C)=C/C(C)=C/[C@@H](C)[C@H](O[C@@H]3O[C@@H](C)[C@H](OC)[C@@H](OC(C)=O)[C@@H]3O)/C=C/C(C)=C/CC[C@H](O)[C@@H](OC)C2)[C@H](C)[C@@H](O)[C@H]1C)O[C@H]1C[C@](C)(O)[C@@H](O[C@H]2C[C@@H](OC)[C@H](O)[C@@H](C)O2)[C@H](C)O1 (some centres not stated),2.7 nM,> 1000 nM,
,COC[C@@H](CC1O[C@@](O)([C@H](OC(C)=O)C2CC(=O)/C(C)=C/C(C)=C/C(C)=C/[C@@H](C)[C@H](O[C@@H]3O[C@@H](C)[C@H](OC)[C@@H](OC(C)=O)[C@@H]3OC(C)=O)/C=C/C(C)=C/CC[C@H](O)[C@@H](OC)C2)[C@H](C)[C@@H](O)[C@H]1C)O[C@H]1C[C@](C)(O)[C@@H](O[C@H]2C[C@@H](OC)[C@H](O)[C@@H](C)O2)[C@H](C)O1 (some centres not stated),,,7.32
5.96,COC[C@@H](CC1O[C@@](O)([C@H](OC(C)=O)C2CC(=O)/C(C)=C/C(C)=C/C(C)=C/[C@@H](C)[C@H](O[C@@H]3O[C@@H](C)[C@H](OC)[C@@H](O)[C@@H]3O)/C=C/C(C)=C/CC[C@H](O)[C@@H](OC)C2)[C@H](C)[C@@H](O)[C@H]1C)O[C@H]1C[C@](C)(O)[C@@H](O[C@H]2C[C@@H](OC)[C@H](O)[C@@H](C)O2)[C@H](C)O1 (some centres not stated),11 nM,> 1000 nM,
5.55,COC[C@@H](CC1O[C@@](O)([C@H](OC)C2CC(=O)/C(C)=C/C(C)=C/C(C)=C/[C@@H](C)[C@H](O[C@@H]3O[C@@H](C)[C@H](OC)[C@@H](O)[C@@H]3O)/C=C/C(C)=C/CC[C@H](O)[C@@H](OC)C2)[C@H](C)[C@@H](O)[C@H]1C)O[C@H]1C[C@](C)(O)[C@@H](O[C@H]2C[C@@H](OC)[C@H](O)[C@@H](C)O2)[C@H](C)O1 (some centres not stated),12 nM,> 1000 nM,
6.10,COC[C@@H](CC1O[C@@](O)([C@H](O)C2CC(=O)/C(C)=C/C(C)=C/C(C)=C/[C@@H](C)[C@H](O[C@@H]3O[C@@H](C)[C@H](OC)[C@@H](O)[C@@H]3O)/C=C/C(C)=C/CC[C@H](OC(C)=O)[C@@H](OC)C2)[C@H](C)[C@@H](O)[C@H]1C)O[C@H]1C[C@](C)(O)[C@@H](O[C@H]2C[C@@H](OC)[C@H](O)[C@@H](C)O2)[C@H](C)O1 (some centres not stated),56 nM,> 1000 nM,

Compound,pIC50 [1],GI50 [2],GI50 at 72 h [3],pEC50 (NCI-H292)
COC[C@@H](CC1O[C@@](O)([C@@H]2OC(=O)/C(C)=C/C(C)=C/C(C)=C/[C@@H](C)[C@H](O[C@@H]3O[C@@H](C)[C@H](OC)[C@@H](O)[C@@H]3O)/C=C/C(C)=C/CC[C@H](O)[C@@H](OC)C[C@@H]2O)[C@H](C)[C@@H](O)[C@H]1C)O[C@H]1C[C@](C)(O)[C@@H](O[C@H]2C[C@@H](OC)[C@H](O)[C@@H](C)O2)[C@H](C)O1 (some centres not stated) [ISOAPOPTOLIDIN],4.77,9 nM,> 1000 nM,
